Activity calls are given as the source filed them. Rule as the data show it: actives have a measured IC50 and inactives only a lower limit.
Target: Envelope glycoprotein gp160 (Human immunodeficiency virus 1, UniProt Q6QLK5)
Assay: cell-free HIV fusion peptide-binding blockers – biochemical, uHTS, fluorescence dequenching, […] (AID 1986)

Sequence of Envelope glycoprotein gp160 (Q6QLK5 whole entry, the tested form may be a part): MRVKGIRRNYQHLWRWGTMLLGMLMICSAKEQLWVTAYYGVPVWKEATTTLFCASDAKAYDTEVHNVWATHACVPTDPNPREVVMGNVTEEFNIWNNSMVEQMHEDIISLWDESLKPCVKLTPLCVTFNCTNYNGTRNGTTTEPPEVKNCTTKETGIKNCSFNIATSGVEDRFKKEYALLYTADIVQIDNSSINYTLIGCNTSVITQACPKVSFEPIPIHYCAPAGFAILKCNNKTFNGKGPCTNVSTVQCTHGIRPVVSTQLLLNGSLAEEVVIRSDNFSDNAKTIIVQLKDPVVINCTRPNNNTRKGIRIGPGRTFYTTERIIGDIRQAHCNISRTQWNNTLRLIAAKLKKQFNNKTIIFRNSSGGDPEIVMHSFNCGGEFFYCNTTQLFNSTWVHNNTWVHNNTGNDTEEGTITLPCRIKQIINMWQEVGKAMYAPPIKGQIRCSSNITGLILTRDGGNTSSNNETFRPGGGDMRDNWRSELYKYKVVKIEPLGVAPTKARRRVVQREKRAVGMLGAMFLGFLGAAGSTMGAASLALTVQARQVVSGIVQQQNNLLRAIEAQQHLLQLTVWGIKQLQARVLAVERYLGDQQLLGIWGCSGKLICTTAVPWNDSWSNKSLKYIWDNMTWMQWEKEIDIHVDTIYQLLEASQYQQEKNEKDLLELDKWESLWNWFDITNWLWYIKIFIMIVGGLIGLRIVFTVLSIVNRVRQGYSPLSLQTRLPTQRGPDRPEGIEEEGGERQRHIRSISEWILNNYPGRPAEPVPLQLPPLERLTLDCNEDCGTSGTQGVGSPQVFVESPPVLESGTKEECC

**Q.** CCOc1cc(/C=C2/C(=N)N3C(=NC2=O)SN=C3S(=O)(=O)C(C)C)ccc1OC(=O)c1ccco1 was tested. Which IC50 did it give?
**A.** 14.8 µM (active)

**Q.** For CCc1nnc(NS(=O)(=O)c2ccc(NC(=O)/C=C/c3ccccc3Cl)cc2)s1, which IC50 is on record?
**A.** 23.7 µM (active)

**Q.** For COc1ccc(C(=O)COC(=O)c2ccccc2NS(=O)(=O)c2ccc(O)c([N+](=O)[O-])c2)cc1, which IC50 is on record?
**A.** 16.4 µM (active)

**Q.** For N=C1/C(=C\c2ccc(-c3cccc(C(=O)O)c3)o2)C(=O)N=C2SC=C(c3ccccc3)N12, which IC50 is on record?
**A.** 6.64 µM (active)

**Q.** Which IC50 does the source give for Cc1noc(NS(=O)(=O)c2ccc(NC(=O)Nc3ccc(Cl)c(Cl)c3)cc2)c1C here?
**A.** 19.8 µM (active)

**Q.** For CC(C)S(=O)(=O)C1=NSC2=NC(=O)/C(=C\c3ccc(OC(=O)c4ccco4)cc3)C(=N)N21, which IC50 is on record?
**A.** 26.7 µM (active)

**Q.** O=C(O)c1cc(NC(=O)c2ccc(Br)cc2)cc(NC(=O)c2ccc(Br)cc2)c1 was tested. Which IC50 did it give?
**A.** 29.4 µM (active)

**Q.** For Brc1ccc(N/N=C(/N=Nc2nn[nH]n2)c2ccccc2)cc1, which IC50 is on record?
**A.** 29.5 µM (active)
